Patent US4515941A, “23-Demycinosyldesmycosin derivatives” (Toyo Jozo Kabushiki Kaisha, priority 1982, dated 1985)
≈ marks a conversion by molar mass, not a printed value. Where two headings read alike, the source gives them in different places.

Experiments:
Type in all cases: cell-based
[1] = test system: Staphylococcus aureus ATCC 6538P; test: MIC, Staphylococcus aureus ATCC 6538P; conditions: ATCC6538P, read-out: MIC
[2] = test system: Staphylococcus aureus MS353; test: MIC, Staphylococcus aureus MS353; conditions: Staphylococcus aureus MS353; read-out: MIC
[3] = test system: Staphylococcus aureus MS353 C36; test: MIC, Staphylococcus aureus MS353 C36; conditions: MS353C36
[4] = test system: Staphylococcus aureus MS353 A0; test: MIC, Staphylococcus aureus MS353 A0 (macrolide resistant); conditions: MS353A0, macrolide resistant bacteria A group
Excerpt: (§1) *macrolide resistant bacteria A group (clinical isolates of erythromycin,
(§2) oleandomycin and 16membered macrolide antibiotic resistant strains.)

[5] = test system: Staphylococcus aureus 0119; test: MIC, Staphylococcus aureus 0119 (macrolide resistant); conditions: macrolide resistant bacteria A group
Excerpt: as §1, §2

[6] = test system: Staphylococcus aureus 0127; test: MIC, Staphylococcus aureus 0127 (macrolide resistant)
Excerpt: as §1, §2

[7] = test system: Staphylococcus epidermis sp-al-1; test: MIC, Staphylococcus epidermis sp-al-1; conditions: SPAL1; Staphylococcus epidermis sp-al-1; read-out: MIC
[8] = test system: Streptococcus pyogenes N.Y.5; test: MIC, Streptococcus pyogenes N.Y.5; conditions: read-out: MIC
[9] = test system: Streptococcus pyogenes 1022; test: MIC, Streptococcus pyogenes 1022 (macrolide resistant); conditions: Streptococcus pyogenes 1022; macrolide resistant bacteria A group; read-out: MIC
Excerpt: as §1, §2

[10] = test system: Streptococcus faecalis 1501; test: MIC, Streptococcus faecalis 1501; conditions: Enterococcus faecalis; Streptococcus faecalis 1501; read-out: MIC
[11] = test system: Streptococcus agalactiae 1020; test: MIC, Streptococcus agalactiae 1020; conditions: Streptococcus agalactiae 1020; read-out: MIC
Sarcina lutea ATCC 9341 = test: MIC, Sarcina lutea ATCC 9341; conditions: Micrococcus luteus, ATCC9341
[12] = test system: Micrococcus flavus ATCC 10240; test: MIC, Micrococcus flavus ATCC 10240; conditions: ATCC10240; Micrococcus flavus ATCC 10240; read-out: MIC
[13] = test system: Corynebacterium diptheriae P.Y.8; test: MIC, Corynebacterium diptheriae P.Y.8; conditions: Corynebacterium diptheriae P.Y.8; read-out: MIC
[14] = test system: Bacillus subtilis ATC 6633; test: MIC, Bacillus subtilis ATC 6633; conditions: ATC6633; Bacillus subtilis ATC 6633; read-out: MIC
[15] = test system: Escherichia coli NIHJ-JC2; test: MIC, Escherichia coli NIHJ-JC2; conditions: NIHJJC2
Escherichia coli B = test: MIC, Escherichia coli B
[16] = test system: Klebsiella pneumoniae ATCC 10031; test: MIC, Klebsiella pneumoniae ATCC 10031; conditions: ATCC10031; Klebsiella pneumoniae ATCC 10031; read-out: MIC
Salmonella typhosa H901 = test: MIC, Salmonella typhosa H901; conditions: Salmonella enterica, TYPHOSA
[17] = test system: Salmonella enteritidis Gaertner; test: MIC, Salmonella enteritidis Gaertner; conditions: Salmonella enterica; Salmonella enteritidis Gaertner; read-out: MIC
[18] = test system: Shigella flexineri type 3a; test: MIC, Shigella flexineri type 3a; conditions: TYPE3A
Shigella sonnei E33 = test: MIC, Shigella sonnei E33
Proteus vulgaris OX19 = test: MIC, Proteus vulgaris OX19; conditions: Proteus vulgaris OX19; read-out: MIC
Serratia marcescens = test: MIC, Serratia marcescens; conditions: read-out: MIC
[19] = test system: Pseudomonas aeruginosa IAM 1095; test: MIC, Pseudomonas aeruginosa IAM 1095; conditions: IAM1095; Pseudomonas aeruginosa IAM 1095; read-out: MIC
[20] = Staphylococcus aureus 0127, macrolide resistant bacteria A group, read-out: MIC

Structure (SMILES)	MIC [1] [µg/mL]	MIC [2] [µg/mL]	MIC [3] [µg/mL]	MIC [4] [µg/mL]	MIC [5] [µg/mL]	MIC [7] [µg/mL]	MIC [8] [µg/mL]	MIC [9] [µg/mL]	MIC [10] [µg/mL]	MIC [11] [µg/mL]	MIC (Sarcina lutea ATCC 9341) [µg/mL]	MIC [12] [µg/mL]	MIC [13] [µg/mL]	MIC [14] [µg/mL]	MIC [15] [µg/mL]	MIC (Escherichia coli B) [µg/mL]	MIC [16] [µg/mL]	MIC (Salmonella typhosa H901) [µg/mL]	MIC [17] [µg/mL]	MIC [18] [µg/mL]	also measured
CCc1ccc(OCC2C=C(C)C=CC(=O)C(C)CC(CC=O)C(OC3OC(C)C(O)C(N(C)C)C3O)C(C)C(O)CC(=O)OC2CC)cc1 (stereo not shown)	0.4 (≈ 0.57 µM)	0.4 (≈ 0.57 µM)	0.4 (≈ 0.57 µM)	25 (≈ 35.6 µM)	25 (≈ 35.6 µM)	0.2 (≈ 0.285 µM)	0.1 (≈ 0.142 µM)	12.5 (≈ 17.8 µM)	0.4 (≈ 0.57 µM)	0.1 (≈ 0.142 µM)	≤ 0.05	≤ 0.05	≤ 0.05	0.4 (≈ 0.57 µM)	> 100	> 100	6.3 (≈ 8.98 µM)	> 100	> 100	> 100	MIC [6, 20]: 25 µg/mL (≈ 35.6 µM); MIC (Shigella sonnei E33): > 100 µg/mL; MIC (Proteus vulgaris OX19): 100 µg/mL (≈ 142 µM); MIC (Serratia marcescens): > 100 µg/mL; MIC [19]: > 100 µg/mL
CCC1OC(=O)CC(O)C(C)C(OC2OC(C)C(O)C(N(C)C)C2O)C(CC=O)CC(C)C(=O)C=CC(C)=CC1COc1ccc(OC)cc1 (stereo not shown)	0.2 (≈ 0.284 µM)	0.2 (≈ 0.284 µM)	0.1 (≈ 0.142 µM)	100 (≈ 142 µM)	> 100	≤ 0.05	≤ 0.05	100 (≈ 142 µM)	0.2 (≈ 0.284 µM)	≤ 0.05	≤ 0.05	≤ 0.05	≤ 0.05	0.2 (≈ 0.284 µM)	> 100	100 (≈ 142 µM)	3.1 (≈ 4.4 µM)	> 100	> 100	50 (≈ 71 µM)	MIC [6, 20]: > 100 µg/mL; MIC (Shigella sonnei E33): > 100 µg/mL; MIC (Proteus vulgaris OX19): 50 µg/mL (≈ 71 µM); MIC (Serratia marcescens): > 100 µg/mL; MIC [19]: > 100 µg/mL
CCC1OC(=O)CC(O)C(C)C(OC2OC(C)C(O)C(N(C)C)C2O)C(CC=O)CC(C)C(=O)C=CC(C)=CC1COc1ccc(Cl)cc1 (stereo not shown)	0.1 (≈ 0.141 µM)	0.1 (≈ 0.141 µM)	≤ 0.05	25 (≈ 35.3 µM)	50 (≈ 70.6 µM)	≤ 0.05	≤ 0.05	12.5 (≈ 17.6 µM)	0.1 (≈ 0.141 µM)	≤ 0.05	≤ 0.05	≤ 0.05	≤ 0.05	0.1 (≈ 0.141 µM)	50 (≈ 70.6 µM)	50 (≈ 70.6 µM)	3.1 (≈ 4.38 µM)	> 100	> 100	6.3 (≈ 8.89 µM)	MIC [6, 20]: 25 µg/mL (≈ 35.3 µM); MIC (Shigella sonnei E33): 50 µg/mL (≈ 70.6 µM); MIC (Proteus vulgaris OX19): 12.5 µg/mL (≈ 17.6 µM); MIC (Serratia marcescens): 50 µg/mL (≈ 70.6 µM); MIC [19]: > 100 µg/mL
CCC1OC(=O)CC(O)C(C)C(OC2OC(C)C(O)C(N(C)C)C2O)C(CC=O)CC(C)C(=O)C=CC(C)=CC1COc1ccccc1 (stereo not shown)	≤ 0.05	≤ 0.05	≤ 0.05	50 (≈ 74.2 µM)	100 (≈ 148 µM)	≤ 0.05	≤ 0.05	50 (≈ 74.2 µM)	≤ 0.05	≤ 0.05	≤ 0.05	≤ 0.05	≤ 0.05	≤ 0.05	50 (≈ 74.2 µM)	25 (≈ 37.1 µM)	1.6 (≈ 2.37 µM)	100 (≈ 148 µM)	100 (≈ 148 µM)	6.3 (≈ 9.35 µM)	MIC [6, 20]: 100 µg/mL (≈ 148 µM); MIC (Shigella sonnei E33): 50 µg/mL (≈ 74.2 µM); MIC (Proteus vulgaris OX19): 12.5 µg/mL (≈ 18.6 µM); MIC (Serratia marcescens): 25 µg/mL (≈ 37.1 µM); MIC [19]: 50 µg/mL (≈ 74.2 µM)
CCC1OC(=O)CC(O)C(C)C(OC2OC(C)C(O)C(N(C)C)C2O)C(CC=O)CC(C)C(=O)C=CC(C)=CC1COc1ccc(Cl)cc1Cl (stereo not shown)	0.2 (≈ 0.269 µM)	0.2 (≈ 0.269 µM)	0.1 (≈ 0.135 µM)	12.5 (≈ 16.8 µM)	25 (≈ 33.7 µM)	≤ 0.05	≤ 0.05	6.3 (≈ 8.48 µM)	0.1 (≈ 0.135 µM)	≤ 0.05	≤ 0.05	≤ 0.05	≤ 0.05	0.1 (≈ 0.135 µM)	> 100	> 100	3.1 (≈ 4.17 µM)	> 100	> 100	25 (≈ 33.7 µM)	MIC ([6]; Staphylococcus aureus, 0127): 12.5 µg/mL (≈ 16.8 µM); MIC (Shigella sonnei E33): > 100 µg/mL; MIC (Proteus vulgaris OX19): 25 µg/mL (≈ 33.7 µM); MIC (Serratia marcescens): 25 µg/mL (≈ 33.7 µM); MIC [19]: > 100 µg/mL
CCC1OC(=O)CC(O)C(C)C(OC2OC(C)C(O)C(N(C)C)C2O)C(CC=O)CC(C)C(=O)C=CC(C)=CC1COc1cccc([N+](=O)[O-])c1 (stereo not shown)	0.1 (≈ 0.139 µM)	0.1 (≈ 0.139 µM)	0.1 (≈ 0.139 µM)	100 (≈ 139 µM)	> 100	≤ 0.05	≤ 0.05	50 (≈ 69.6 µM)	0.1 (≈ 0.139 µM)	≤ 0.05	≤ 0.05	≤ 0.05	≤ 0.05	≤ 0.05	100 (≈ 139 µM)	50 (≈ 69.6 µM)	1.6 (≈ 2.23 µM)	100 (≈ 139 µM)	> 100	12.5 (≈ 17.4 µM)	MIC [6, 20]: 100 µg/mL (≈ 139 µM); MIC (Shigella sonnei E33): 100 µg/mL (≈ 139 µM); MIC (Proteus vulgaris OX19): 25 µg/mL (≈ 34.8 µM); MIC (Serratia marcescens): 50 µg/mL (≈ 69.6 µM); MIC [19]: 50 µg/mL (≈ 69.6 µM)
CCC1OC(=O)CC(O)C(C)C(OC2OC(C)C(O)C(N(C)C)C2O)C(CC=O)CC(C)C(=O)C=CC(C)=CC1COc1cccc(N(CC)CC)c1 (stereo not shown)	0.8 (≈ 1.07 µM)	0.4 (≈ 0.537 µM)	0.4 (≈ 0.537 µM)	25 (≈ 33.6 µM)	50 (≈ 67.1 µM)	0.2 (≈ 0.268 µM)	0.1 (≈ 0.134 µM)	12.5 (≈ 16.8 µM)	0.2 (≈ 0.268 µM)	0.1 (≈ 0.134 µM)	0.1 (≈ 0.134 µM)	0.1 (≈ 0.134 µM)	≤ 0.05	0.2 (≈ 0.268 µM)	> 100	> 100	3.1 (≈ 4.16 µM)	> 100	> 100	50 (≈ 67.1 µM)	MIC [6, 20]: 25 µg/mL (≈ 33.6 µM); MIC (Shigella sonnei E33): > 100 µg/mL; MIC (Proteus vulgaris OX19): 25 µg/mL (≈ 33.6 µM); MIC (Serratia marcescens): > 100 µg/mL; MIC [19]: > 100 µg/mL
